Test results taken from publication PMC6366974, “The curcumin analog EF24 is a novel senolytic agent” (Aging (Albany NY), 2019).

Tests used:
WI-38 IR-SCs = experiment: Combination treatment cell viability and coefficient of drug interaction (CDI); type: cell-based, human; settings: 72 h
Experimental: (§1) Number of viable cells were quantified using flow cytometry as previously described with slight modifications. Specifically, NCs and SCs were incubated with vehicle (0.1% DMSO) or a test compound at indicated concentrations for 72 h. Following dissociation with 0.25% Trypsin-EDTA (Cat. No. 25200056, Thermo Fisher Scientific, Waltham, MA, USA) at 37°C for 5 min, the cells were harvested in 100 µl pre-cooled phosphate buffered saline (PBS, Cat. No. 20012027, Thermo Fisher Scientific, Waltham, MA, USA) containing 2% FBS and 100 ng/mL propidium iodide (PI, P4170, Sigma-Aldrich, St. Louis, MO, USA) and analyzed using flow cytometry (LSR II, BD Biosciences, San Jose, CA, USA). Percentage of viable cells were determined by counting the number of PI negative cells (viable cells) and then calculated as a ratio of control cells treated with vehicle. In addition, dose-response curves were generated for each compound, and the concentration for 50% of maximal effect (EC50 values) was calculated using GraphPad Prism 6.
The data were analyzed by analysis of variance (ANOVA) with GraphPad Prism 6 (GraphPad Software, La Jolla, CA, USA). […] To detect the synergistic senolytic activities of EF24 and ABT263, CDI was calculated as previously described.

pre-adipocytes IR-SCs = experiment: Cell viability assay (flow cytometry, PI); type: cell-based; settings: Homo sapiens; Pre-adipocyte, 72 h
HUVEC IR-SCs = experiment: Cell viability assay (flow cytometry, PI); type: cell-based; settings: Homo sapiens, 72 h
[1] = test system: WI-38 Ras-induced senescent cells (Ras-SCs); experiment: Cell viability assay (flow cytometry, PI); type: cell-based, human; settings: 72 h
Experimental: (§2) Human WI-38 fibroblasts (WI-38, Cat. No. CCL-75), human IMR-90 fibroblasts (IMR-90, Cat. No. CCL-186), human umbilical vein endothelial cells (HUVEC, Cat. No. CRL-1730), human renal epithelial cells (HREC, Cat. No. PCS-400-012) and human pre-adipocytes (Cat. No. PCS-210-010) were newly purchased from the American Type Culture Collection (ATCC, Manassas, VA, USA). WI-38 and IMR-90 cells were cultured in complete Dulbecco’s modified Eagle medium (DMEM, Cat. No. 12430054, Thermo Fisher Scientific, Waltham, MA, USA) supplemented with 10% heat-inactivated fetal bovine serum (FBS, Cat. No. S11150H, Atlanta Biologicals, Flowery Branch, GA, USA), 100 U/mL penicillin and 100 µg/mL streptomycin (Pen Strep, Cat. No. 15140122, Thermo Fisher Scientific, Waltham, MA, USA) in a humidified incubator at 37°C and 5% CO2. HUVEC were cultured in EGM-2 BulletKit (Cat. No. CC-3162, Lonza, Basel, Switzerland) containing basal medium supplemented with growth factors, cytokines and other supplements according to the manufacturer’s protocol. HREC were cultured in renal epithelial cell basal medium (Cat. No. PCS-400-030, ATCC, Manassas, VA, USA) supplemented with renal epithelial cell growth kit (Cat. No. PCS400040, ATCC, Manassas, VA, USA). Human pre-adipocytes were cultured in fibroblast basal medium (Cat. No. PCS-201-030, ATCC, Manassas, VA, USA) supplemented with fibroblast growth kit-low serum (Cat. No. PCS201041, ATCC, Manassas, VA, USA). EF24 (Cat. No. E8409) and HO-3867 (Cat. No. S7501) were purchased from Sigma-Aldrich (St. Louis, MO, USA) and Selleckchem (Houston, TX, USA), respectively. DIMC (Cat. No. 10009986) and 2-HBA (Cat. No. 11879) were both purchased from Cayman Chemical (Ann Arbor, MI, USA).
(§3) Three different methods were used for the induction of SCs, including replicative exhaustion, ionizing radiation and ectopic Ras expression as previously described. Briefly, low-passage WI-38 cells (< 25 passages), IMR-90 cells (< 25 passages), HUVEC (< 10 passages), HREC (< 10 passages) and pre-adipocytes (< 4 passages) were used as NCs or for the induction of senescence. To induce replicative senescence (Rep-SCs), WI-38 and IMR-90 fibroblasts, HUVEC, HREC and pre-adipocytes were subcultured until they stopped to divide and became permanently growth arrested senescence after 38 passages (WI-38), 38 passages (IMR-90), 22 passages (HUVEC), 30 passages (HREC) and 10 passages (pre-adipocytes), respectively. To induce SCs by ionizing radiation (IR-SCs) and ectopic expression of Ras (Ras-SCs), WI-38 NCs were treated as previously described.
as §1

cancer cells = test system: cancer cells; parameters: method as in PMID 15210154; settings: more potent than curcumin; cited from earlier work
[2] = test system: BCL-XL, MCL-1 and BCL-2 mRNA; experiment: qPCR of mRNA levels in WI-38 cells; type: cell-based, human; settings: WI-38 NCs and IR-SCs, 72 h
Experimental: The mRNA levels were measured with qPCR, as previously described. qPCR was run with TaqMan qPCR (Cat. No. 4444965, Thermo Fisher Scientific, Waltham, MA, USA) reagents and primers (Cat. No. 4331182, Thermo Fisher Scientific, Waltham, MA, USA).

IMR-90 fibroblasts NCs = experiment: Cell viability assay (flow cytometry, PI); type: cell-based; settings: Homo sapiens, IMR-90, 72 h
Experimental: as §2, §3, §1

[3] = test system: IMR-90 fibroblasts Rep-SCs; experiment: Cell viability assay (flow cytometry, PI); type: cell-based; settings: Homo sapiens, IMR-90, 72 h
Experimental: as §2, §3, §1

HUVEC Rep-SCs = experiment: Cell viability assay (flow cytometry, PI); type: cell-based; settings: Homo sapiens, 72 h
Experimental: as §2, §3, §1

pre-adipocytes Rep-SCs = experiment: Cell viability assay (flow cytometry, PI); type: cell-based; settings: Homo sapiens; Pre-adipocyte, 72 h
Experimental: as §2, §3, §1

HREC Rep-SCs = experiment: Cell viability assay (flow cytometry, PI); type: cell-based; settings: Homo sapiens, 72 h
Experimental: as §2, §3, §1

HREC NCs = experiment: Cell viability assay (flow cytometry, PI); type: cell-based; settings: Homo sapiens, 72 h
Experimental: as §2, §3, §1

pre-adipocytes NCs = experiment: Cell viability assay (flow cytometry, PI); type: cell-based; settings: Homo sapiens; Pre-adipocyte, 72 h
Experimental: as §2, §3, §1

[4] = test system: WI-38 replication-exhausted senescent cells (Rep-SCs); experiment: Cell viability assay (flow cytometry, PI); type: cell-based; settings: Homo sapiens; WI-38, 72 h, Table 2
Experimental: as §2, §3, §1

HUVEC NCs = experiment: Cell viability assay (flow cytometry, PI); type: cell-based; settings: Homo sapiens, 72 h
Experimental: as §2, §3, §1

HREC IR-SCs = experiment: Cell viability assay (flow cytometry, PI); type: cell-based; settings: Homo sapiens, 72 h

Which results are given for `O=C1/C(=C/c2ccccc2F)CNC/C1=C\c1ccccc1F` [EF24]?
cell viability of IR-SCs, agent alone (WI-38 IR-SCs): dose-dependently reduce; EC50 (pre-adipocytes IR-SCs): 5040 nM; EC50 (HUVEC IR-SCs): 2090 nM; sensitivity of WI-38 Ras-SCs compared with Rep-SCs and IR-SCs [1]: highest sensitivity; potency in inducing cancer cell death relative to curcumin (cancer cells): 10 fold; BCL-XL, MCL-1 and BCL-2 mRNA levels [2]: did not observe any significant changes; EC50 (IMR-90 fibroblasts NCs): 10900 nM; EC50 [3]: 330 nM; EC50 (HUVEC Rep-SCs): 770 nM; EC50 (pre-adipocytes Rep-SCs): 4600 nM; EC50 (HREC Rep-SCs): 600 nM; EC50 (HREC NCs): 3250 nM; EC50 (pre-adipocytes NCs): 8920 nM; EC50 [4]: 1260 nM; EC50 (HUVEC NCs): 1390 nM; EC50 (HREC IR-SCs): 1150 nM
